# Tests used:
# Assay type in all cases: cell-based
# [1] = test system: MOLT4 (Human Tcell leukaemia); test: in vitro culture cell number, MOLT4
# Description: (§1) Substances having the structures of the synthesised target material when added to in vitro cultures of various cancer cell lines produced a dose-related cell death as indicated in the Tables below.
# [2] = test system: G361 (Human malignant melanoma); test: in vitro culture cell number, G361
# Description: as §1
# [3] = test system: CaSki (Human cervical epidermoid carcinoma); test: in vitro culture cell number, CaSki
# Description: as §1
# [4] = test system: WiDr (Human colon adenocarcinoma); test: in vitro culture cell number, WiDr
# Description: as §1
# [5] = test system: WIL2 (Human B lymphoblastoma); test: in vitro culture cell number, WIL2
# Description: as §1
# [6] = test system: PC3 (Human prostate adenocarcinoma); test: in vitro culture cell number, PC3
# Description: as §1
# [7] = test system: PA-1 (Human ovarian teratocarcinoma); test: in vitro culture cell number, PA-1
# Description: as §1
# [8] = test system: KHOS/NP (Human osteocarcinoma); test: in vitro culture cell number, KHOS/NP
# Description: as §1
# [9] = test system: HeLa (Human cervical carcinoma); test: in vitro culture cell number, HeLa
# Description: as §1
# [10] = Homo sapiens, 7.5 μg/ml, P < 0.001, read-out: Cell No (% Control)
# [11] = Homo sapiens, 10.0 μg/ml, P < 0.001, read-out: Cell No (% Control)
# [12] = Homo sapiens, 20.0 μg/ml, P < 0.001, read-out: Cell No (% Control)
# [13] = Homo sapiens, 2.0 μg/ml, P < 0.001, read-out: Cell No (% Control)
# [14] = Homo sapiens, 5.0 μg/ml, P < 0.001, read-out: Cell No (% Control)
smiles,measurement,setting,value
"O=CCC1OCCC1=O (racemic) [Compound 8, (3-ketotetrahydrofuran-2-yl)ethanal]",activity at 0.5 µg/mL,"[1]; Homo sapiens, MOLT-4, MOLT4, 0.5 μg/ml, P < 0.001, read-out: Cell No (% Control)",91.2%
same,activity at 1 µg/mL,"[1]; Homo sapiens, MOLT-4, MOLT4, 1.0 μg/ml, P < 0.001, read-out: Cell No (% Control)",78.8%
same,activity at 1.5 µg/mL,"[1]; Homo sapiens, MOLT-4, MOLT4, 1.5 μg/ml, P < 0.001, read-out: Cell No (% Control)",53.7%
same,activity at 2 µg/mL,"[1]; Homo sapiens, MOLT-4, MOLT4, 2.0 μg/ml, P < 0.001, read-out: Cell No (% Control)",34.2%
same,activity at 5 µg/mL,"[1]; Homo sapiens, MOLT-4, MOLT4, 5.0 μg/ml, P < 0.001, read-out: Cell No (% Control)",12.4%
same,Cell No,"[1]; MOLT4, 0.5 μg/ml",4543
same,Cell No,"[1]; MOLT4, 1.0 μg/ml",3920
same,Cell No,"[1]; MOLT4, 1.5 μg/ml",2674
same,Cell No,"[1]; MOLT4, 2.0 μg/ml",1701
same,Cell No,"[1]; MOLT4, 5.0 μg/ml",619
same,Cell No,"[2]; G361, 2.0 μg/ml",1679
same,Cell No,"[2]; G361, 5.0 μg/ml",314
same,Cell No,"[2]; G361, 7.5 μg/ml",159
same,Cell No,"[2]; G361, 10.0 μg/ml",142
same,Cell No,"[2]; G361, 20.0 μg/ml",230
same,activity at 2 µg/mL,"[2]; Homo sapiens, G-361, G361, 2.0 μg/ml, P < 0.001, read-out: Cell No (% Control)",35.8%
same,activity at 5 µg/mL,"[2]; Homo sapiens, G-361, G361, 5.0 μg/ml, P < 0.001, read-out: Cell No (% Control)",6.7%
same,activity at 7.5 µg/mL,"[2]; Homo sapiens, G-361, G361, 7.5 μg/ml, P < 0.001, read-out: Cell No (% Control)",3.4%
same,activity at 10 µg/mL,"[2]; Homo sapiens, G-361, G361, 10.0 μg/ml, P < 0.001, read-out: Cell No (% Control)",3%
same,activity at 20 µg/mL,"[2]; Homo sapiens, G-361, G361, 20.0 μg/ml, P < 0.001, read-out: Cell No (% Control)",4.9%
same,Cell No,[3]; 2.0 μg/ml,4401
same,Cell No,[3]; 5.0 μg/ml,4617
same,Cell No,[3]; 7.5 μg/ml,3495
same,Cell No,[3]; 10.0 μg/ml,2800
same,Cell No,[3]; 20.0 μg/ml,234
same,activity at 2 µg/mL,"[3]; Homo sapiens, Ca-Ski, 2.0 μg/ml, P < 0.001, read-out: Cell No (% Control)",89.1%
same,activity at 5 µg/mL,"[3]; Homo sapiens, Ca-Ski, 5.0 μg/ml, read-out: Cell No (% Control)",93.5%
same,activity at 7.5 µg/mL,"[3]; Homo sapiens, Ca-Ski, 7.5 μg/ml, P < 0.001, read-out: Cell No (% Control)",70.8%
same,activity at 10 µg/mL,"[3]; Homo sapiens, Ca-Ski, 10.0 μg/ml, P < 0.001, read-out: Cell No (% Control)",56.7%
same,activity at 20 µg/mL,"[3]; Homo sapiens, Ca-Ski, 20.0 μg/ml, P < 0.001, read-out: Cell No (% Control)",4.7%
same,Cell No,[4]; 2.0 μg/ml,5845
same,Cell No,[4]; 5.0 μg/ml,5762
same,Cell No,[4]; 7.5 μg/ml,5097
same,Cell No,[4]; 10.0 μg/ml,3826
same,Cell No,[4]; 20.0 μg/ml,178
same,activity at 2 µg/mL,"[4]; Homo sapiens, 2.0 μg/ml, P < 0.05, read-out: Cell No (% Control)",90.9%
same,activity at 5 µg/mL,"[4]; Homo sapiens, 5.0 μg/ml, P < 0.05, read-out: Cell No (% Control)",89.6%
same,activity at 7.5 µg/mL,[4]; [10],79.3%
same,activity at 10 µg/mL,[4]; [11],59.5%
same,activity at 20 µg/mL,[4]; [12],2.8%
same,activity at 0.5 µg/mL,"[5]; Homo sapiens, WIL2, 0.5 μg/ml, P < 0.001, read-out: Cell No (% Control)",85.3%
same,activity at 1 µg/mL,"[5]; Homo sapiens, WIL2, 1.0 μg/ml, P < 0.001, read-out: Cell No (% Control)",58.8%
same,activity at 1.5 µg/mL,"[5]; Homo sapiens, WIL2, 1.5 μg/ml, P < 0.001, read-out: Cell No (% Control)",24.9%
same,activity at 2 µg/mL,"[5]; Homo sapiens, WIL2, 2.0 μg/ml, P < 0.001, read-out: Cell No (% Control)",16.1%
same,activity at 5 µg/mL,"[5]; Homo sapiens, WIL2, 5.0 μg/ml, P < 0.001, read-out: Cell No (% Control)",7.1%
same,Cell No,"[5]; WIL2, 0.5 μg/ml",8431
same,Cell No,"[5]; WIL2, 1.0 μg/ml",5810
same,Cell No,"[5]; WIL2, 1.5 μg/ml",2459
same,Cell No,"[5]; WIL2, 2.0 μg/ml",1591
same,Cell No,"[5]; WIL2, 5.0 μg/ml",705
same,activity at 2 µg/mL,"[6]; Homo sapiens, PC-3, PC3, 2.0 μg/ml, P < 0.05, read-out: Cell No (% Control)",87.9%
same,activity at 5 µg/mL,"[6]; Homo sapiens, PC-3, PC3, 5.0 μg/ml, P < 0.001, read-out: Cell No (% Control)",67.4%
same,activity at 7.5 µg/mL,"[6]; Homo sapiens, PC-3, PC3, 7.5 μg/ml, P < 0.001, read-out: Cell No (% Control)",32.9%
same,activity at 10 µg/mL,"[6]; Homo sapiens, PC-3, PC3, 10.0 μg/ml, P < 0.001, read-out: Cell No (% Control)",9.3%
same,activity at 20 µg/mL,"[6]; Homo sapiens, PC-3, PC3, 20.0 μg/ml, P < 0.001, read-out: Cell No (% Control)",5.9%
same,Cell No,"[6]; PC3, 2.0 μg/ml",5908
same,Cell No,"[6]; PC3, 5.0 μg/ml",4532
same,Cell No,"[6]; PC3, 7.5 μg/ml",2211
same,Cell No,"[6]; PC3, 10.0 μg/ml",627
same,Cell No,"[6]; PC3, 20.0 μg/ml",399
same,activity at 0.5 µg/mL,"[7]; Homo sapiens, PA-1, 0.5 μg/ml, P < 0.001, read-out: Cell No (% Control)",84.3%
same,activity at 1 µg/mL,"[7]; Homo sapiens, PA-1, 1.0 μg/ml, P < 0.001, read-out: Cell No (% Control)",84.9%
same,activity at 1.5 µg/mL,"[7]; Homo sapiens, PA-1, 1.5 μg/ml, P < 0.001, read-out: Cell No (% Control)",77.3%
same,activity at 2 µg/mL,"[7]; Homo sapiens, PA-1, 2.0 μg/ml, P < 0.001, read-out: Cell No (% Control)",72.4%
same,activity at 5 µg/mL,"[7]; Homo sapiens, PA-1, 5.0 μg/ml, P < 0.001, read-out: Cell No (% Control)",20.9%
same,Cell No,"[7]; PA-1, 0.5 μg/ml",11346
same,Cell No,"[7]; PA-1, 1.0 μg/ml",11276
same,Cell No,"[7]; PA-1, 1.5 μg/ml",10338
same,Cell No,"[7]; PA-1, 2.0 μg/ml",9678
same,Cell No,"[7]; PA-1, 5.0 μg/ml",2729
same,Cell No,[8]; 2.0 μg/ml,9442
same,Cell No,[8]; 5.0 μg/ml,6356
same,Cell No,[8]; 7.5 μg/ml,2469
same,Cell No,[8]; 10.0 μg/ml,862
same,Cell No,[8]; 20.0 μg/ml,380
same,activity at 2 µg/mL,[8]; [13],84.5%
same,activity at 5 µg/mL,[8]; [14],56.9%
same,activity at 7.5 µg/mL,[8]; [10],22.1%
same,activity at 10 µg/mL,[8]; [11],7.7%
same,activity at 20 µg/mL,[8]; [12],3.4%
same,Cell No,[9]; 0.5 μg/ml,12165
same,Cell No,[9]; 1.0 μg/ml,10932
same,Cell No,[9]; 1.5 μg/ml,7453
same,Cell No,[9]; 2.0 μg/ml,4675
same,Cell No,[9]; 5.0 μg/ml,201
same,activity at 0.5 µg/mL,"[9]; Homo sapiens, 0.5 μg/ml, P < 0.001, read-out: Cell No (% Control)",83.9%
same,activity at 1 µg/mL,"[9]; Homo sapiens, 1.0 μg/ml, P < 0.001, read-out: Cell No (% Control)",75.4%
same,activity at 1.5 µg/mL,"[9]; Homo sapiens, 1.5 μg/ml, P < 0.001, read-out: Cell No (% Control)",51.4%
same,activity at 2 µg/mL,[9]; [13],32.2%
same,activity at 5 µg/mL,[9]; [14],1.4%
